# In ChEMBL document CHEMBL5537158, “Polymyxins with Potent Antibacterial Activity against Colistin-Resistant Pathogens: Fine-Tuning Hydrophobicity with Unnatural Amino Acids” (J Med Chem, 2024):
# Positions of bridges follow the written chain, without caps; N, C: chain ends. Non-standard residues stand in square brackets, D forms with d. Residues, ends and D or L forms follow the SMILES beside them. *: point of attachment. dPhe(3,4,5-F3) = N[C@H](Cc1cc(F)c(F)c(F)c1)C(=O)O; dPhe(4-CF3) = N[C@H](Cc1ccc(C(F)(F)F)cc1)C(=O)O; dPhe(4-Cl) = N[C@H](Cc1ccc(Cl)cc1)C(=O)O; Phe(4-F) = N[C@@H](Cc1ccc(F)cc1)C(=O)O; Phe(2-F) = N[C@@H](Cc1ccccc1F)C(=O)O; d(hhPhe) = N[C@H](CCCc1ccccc1)C(=O)O; d(hPhe) = N[C@H](CCc1ccccc1)C(=O)O; hhPhe = N[C@@H](CCCc1ccccc1)C(=O)O; d(hLeu) = CC(C)CC[C@@H](N)C(=O)O; dAoc(2) = CCCCCC[C@@H](N)C(=O)O; Octanoyl = CCCCCCCC(=O)*; Dab = NCC[C@H](N)C(=O)O
# Assays:
# Klebsiella pneumoniae [1] = assay: Antimicrobial activity against Klebsiella pneumoniae ATCC 13883 assessed as bacterial growth inhibition incubated for 20 hrs by broth microdilution method; assay type: functional
# Acinetobacter baumannii [2] = assay: Antimicrobial activity against Acinetobacter baumannii ATCC 19606 assessed as bacterial growth inhibition incubated for 20 hrs by broth microdilution method; assay type: functional
# [3] = Hemolytic activity in human RBC at 400 ug/ml after 1 hr; assay type: toxicity, cell-based, Erythrocyte; details: red blood cells (erythrocytes), at 400 µg/mL, read-out: Activity
# Escherichia coli [4] = assay: Antimicrobial activity against […] Escherichia coli harboring mcr-1 assessed as bacterial growth inhibition incubated for 20 hrs by broth microdilution method; assay type: functional
# Pseudomonas aeruginosa [5] = assay: Antimicrobial activity against Pseudomonas aeruginosa PAO1 assessed as bacterial growth inhibition incubated for 20 hrs by broth microdilution method; assay type: functional
# Pseudomonas aeruginosa [6] = assay: Antimicrobial activity against colistin resistant Pseudomonas aeruginosa 7197/19 assessed as bacterial growth inhibition incubated for 20 hrs by broth microdilution method; assay type: functional
# Escherichia coli [7] = assay: Antibacterial activity against Escherichia coli ATCC 25922 assessed as bacterial growth inhibition incubated for 20 hrs by broth microdilution method; assay type: functional
# Acinetobacter baumannii [8] = assay: Antimicrobial activity against colistin resistant Acinetobacter baumannii ATCC 3658/17 assessed as bacterial growth inhibition incubated for 20 hrs by broth microdilution method; assay type: functional
# Escherichia coli [9] = assay: Antibacterial activity against […] Escherichia coli clinical isolate 1 assessed as bacterial growth inhibition incubated for 20 hrs by broth microdilution method; assay type: functional
# Pseudomonas aeruginosa [10] = assay: Antimicrobial activity against colistin resistant Pseudomonas aeruginosa clinical isolate 1 assessed as bacterial growth inhibition incubated for 20 hrs by broth microdilution method; assay type: functional
# Klebsiella pneumoniae [11] = assay: Antimicrobial activity against colistin resistant Klebsiella pneumoniae ATCC 13883 assessed as bacterial growth inhibition incubated for 20 hrs by broth microdilution method; assay type: functional
# Klebsiella pneumoniae [12] = assay: Antimicrobial activity against colistin resistant Klebsiella pneumoniae clinical isolate 1 assessed as bacterial growth inhibition incubated for 20 hrs by broth microdilution method; assay type: functional
# Klebsiella pneumoniae [13] = assay: Antimicrobial activity against colistin resistant Klebsiella pneumoniae clinical isolate 3 assessed as bacterial growth inhibition incubated for 20 hrs by broth microdilution method; assay type: functional
# Acinetobacter baumannii [14] = assay: Antimicrobial activity against colistin resistant Acinetobacter baumannii clinical isolate 4 assessed as bacterial growth inhibition incubated for 20 hrs by broth microdilution method; assay type: functional
SMILES,MIC (Klebsiella pneumoniae [1]),MIC (Acinetobacter baumannii [2]),"hemolysis at 1 h, 400 ug/ml [3]",MIC (Escherichia coli [4]),MIC (Pseudomonas aeruginosa [5]),MIC (Pseudomonas aeruginosa [6]),MIC (Escherichia coli [7]),MIC (Acinetobacter baumannii [8]),MIC (Escherichia coli [9]),MIC (Pseudomonas aeruginosa [10]),MIC (Klebsiella pneumoniae [11]),MIC (Klebsiella pneumoniae [12]),MIC (Klebsiella pneumoniae [13]),MIC (Acinetobacter baumannii [14])
CC(=O)N[C@H](Cc1ccc(Cl)cc1)C(=O)N[C@@H](CCN)C(=O)N[C@H](C(=O)N[C@@H](CCN)C(=O)N[C@H]1CCNC(=O)[C@H]([C@@H](C)O)NC(=O)[C@H](CCN)NC(=O)[C@H](CCN)NC(=O)[C@H](CC(C)C)NC(=O)[C@@H](Cc2ccccc2)NC(=O)[C@@H](CCN)NC1=O)[C@H](C)O,16 µg/mL,0.5 µg/mL,< 10%,–,–,–,–,–,–,–,–,–,–,–
CC(=O)N[C@H](Cc1ccc(C(F)(F)F)cc1)C(=O)N[C@@H](CCN)C(=O)N[C@H](C(=O)N[C@@H](CCN)C(=O)N[C@H]1CCNC(=O)[C@H]([C@@H](C)O)NC(=O)[C@H](CCN)NC(=O)[C@H](CCN)NC(=O)[C@H](CC(C)C)NC(=O)[C@@H](Cc2ccccc2)NC(=O)[C@@H](CCN)NC1=O)[C@H](C)O,8 µg/mL,0.5 µg/mL,< 10%,4 µg/mL,0.25 µg/mL,32 µg/mL,–,–,–,–,–,–,–,–
CCCCCCCC(=O)N[C@@H](CCN)C(=O)N[C@H](C(=O)N[C@@H](CCN)C(=O)N[C@H]1CCNC(=O)[C@H]([C@@H](C)O)NC(=O)[C@H](CCN)NC(=O)[C@H](CCN)NC(=O)[C@H](Cc2ccccc2)NC(=O)[C@@H](CCc2ccccc2)NC(=O)[C@H](CCN)NC1=O)[C@@H](C)O (Octanoyl-[Dab]T[Dab][Dab][Dab][d(hPhe)]F[Dab][Dab]T; lactam 4-C),2 µg/mL,0.125 µg/mL,–,2 µg/mL,0.25 µg/mL,0.25 µg/mL,0.5 µg/mL,1 µg/mL,–,–,–,–,–,–
CCCCCCCC(=O)N[C@@H](CCN)C(=O)N[C@H](C(=O)N[C@@H](CCN)C(=O)N[C@H]1CCNC(=O)[C@H]([C@@H](C)O)NC(=O)[C@H](CCN)NC(=O)[C@H](CCN)NC(=O)[C@H](Cc2ccc(F)cc2)NC(=O)[C@@H](CC(C)C)NC(=O)[C@H](CCN)NC1=O)[C@@H](C)O (Octanoyl-[Dab]T[Dab][Dab][Dab][dL][Phe(4-F)][Dab][Dab]T; lactam 4-C),–,0.25 µg/mL,–,2 µg/mL,0.125 µg/mL,32 µg/mL,–,16 µg/mL,–,–,–,–,–,–
CCCCCCCC(=O)N[C@@H](CCN)C(=O)N[C@H](C(=O)N[C@@H](CCN)C(=O)N[C@H]1CCNC(=O)[C@H]([C@@H](C)O)NC(=O)[C@H](CCN)NC(=O)[C@H](CCN)NC(=O)[C@H](CC(C)C)NC(=O)[C@@H](Cc2ccc(Cl)cc2)NC(=O)[C@H](CCN)NC1=O)[C@@H](C)O (Octanoyl-[Dab]T[Dab][Dab][Dab][dPhe(4-Cl)]L[Dab][Dab]T; lactam 4-C),< 0.125 µg/mL,–,–,–,0.25 µg/mL,0.25 µg/mL,–,0.25 µg/mL,2 µg/mL,4 µg/mL,16 µg/mL,16 µg/mL,16 µg/mL,16 µg/mL
CCCCCCCC(=O)N[C@@H](CCN)C(=O)N[C@H](C(=O)N[C@@H](CCN)C(=O)N[C@H]1CCNC(=O)[C@H]([C@@H](C)O)NC(=O)[C@H](CCN)NC(=O)[C@H](CCN)NC(=O)[C@H](Cc2ccccc2F)NC(=O)[C@@H](CC(C)C)NC(=O)[C@H](CCN)NC1=O)[C@@H](C)O (Octanoyl-[Dab]T[Dab][Dab][Dab][dL][Phe(2-F)][Dab][Dab]T; lactam 4-C),4 µg/mL,0.125 µg/mL,–,2 µg/mL,–,–,0.06 µg/mL,–,–,–,–,–,–,–
CCCCCCCC(=O)N[C@@H](CCN)C(=O)N[C@H](C(=O)N[C@@H](CCN)C(=O)N[C@H]1CCNC(=O)[C@H]([C@@H](C)O)NC(=O)[C@H](CCN)NC(=O)[C@H](CCN)NC(=O)[C@H](Cc2ccccc2)NC(=O)[C@@H](CCC(C)C)NC(=O)[C@H](CCN)NC1=O)[C@@H](C)O (Octanoyl-[Dab]T[Dab][Dab][Dab][d(hLeu)]F[Dab][Dab]T; lactam 4-C),0.5 µg/mL,< 0.125 µg/mL,–,–,–,0.23 µg/mL,< 0.125 µg/mL,1 µg/mL,–,–,–,–,–,–
CCCCCCCC(=O)N[C@@H](CCN)C(=O)N[C@H](C(=O)N[C@@H](CCN)C(=O)N[C@H]1CCNC(=O)[C@H]([C@@H](C)O)NC(=O)[C@H](CCN)NC(=O)[C@H](CCN)NC(=O)[C@H](CCCc2ccccc2)NC(=O)[C@@H](CC(C)C)NC(=O)[C@H](CCN)NC1=O)[C@@H](C)O (Octanoyl-[Dab]T[Dab][Dab][Dab][dL][hhPhe][Dab][Dab]T; lactam 4-C),–,< 0.125 µg/mL,–,1 µg/mL,0.5 µg/mL,0.5 µg/mL,0.5 µg/mL,0.5 µg/mL,–,–,–,–,–,–
CCCCCCCC(=O)N[C@@H](CCN)C(=O)N[C@H](C(=O)N[C@@H](CCN)C(=O)N[C@H]1CCNC(=O)[C@H]([C@@H](C)O)NC(=O)[C@H](CCN)NC(=O)[C@H](CCN)NC(=O)[C@H](CC(C)C)NC(=O)[C@@H](Cc2ccc(C(F)(F)F)cc2)NC(=O)[C@H](CCN)NC1=O)[C@@H](C)O (Octanoyl-[Dab]T[Dab][Dab][Dab][dPhe(4-CF3)]L[Dab][Dab]T; lactam 4-C),–,0.25 µg/mL,–,1 µg/mL,–,0.25 µg/mL,0.25 µg/mL,0.5 µg/mL,–,–,–,–,–,–
CCCCCCCC(=O)N[C@@H](CCN)C(=O)N[C@H](C(=O)N[C@@H](CCN)C(=O)N[C@H]1CCNC(=O)[C@H]([C@@H](C)O)NC(=O)[C@H](CCN)NC(=O)[C@H](CCN)NC(=O)[C@H](Cc2ccccc2)NC(=O)[C@@H](CCCCCC)NC(=O)[C@H](CCN)NC1=O)[C@@H](C)O (Octanoyl-[Dab]T[Dab][Dab][Dab][dAoc(2)]F[Dab][Dab]T; lactam 4-C),1 µg/mL,0.25 µg/mL,–,–,–,0.25 µg/mL,0.25 µg/mL,0.5 µg/mL,–,–,–,–,–,–
CC(=O)N[C@H](Cc1c(F)c(F)c(F)c(F)c1F)C(=O)N[C@@H](CCN)C(=O)N[C@H](C(=O)N[C@@H](CCN)C(=O)N[C@H]1CCNC(=O)[C@H]([C@@H](C)O)NC(=O)[C@H](CCN)NC(=O)[C@H](CCN)NC(=O)[C@H](CC(C)C)NC(=O)[C@@H](Cc2ccccc2)NC(=O)[C@@H](CCN)NC1=O)[C@H](C)O,8 µg/mL,–,< 10%,8 µg/mL,0.25 µg/mL,–,< 0.125 µg/mL,–,–,–,–,–,–,–
CCCCCCCC(=O)N[C@@H](CCN)C(=O)N[C@H](C(=O)N[C@@H](CCN)C(=O)N[C@H]1CCNC(=O)[C@H]([C@@H](C)O)NC(=O)[C@H](CCN)NC(=O)[C@H](CCN)NC(=O)[C@H](Cc2ccccc2)NC(=O)[C@@H](CCCc2ccccc2)NC(=O)[C@H](CCN)NC1=O)[C@@H](C)O (Octanoyl-[Dab]T[Dab][Dab][Dab][d(hhPhe)]F[Dab][Dab]T; lactam 4-C),–,–,–,2 µg/mL,–,0.5 µg/mL,0.25 µg/mL,1 µg/mL,–,–,–,–,–,–
CC(=O)N[C@H](Cc1ccc(Br)cc1)C(=O)N[C@@H](CCN)C(=O)N[C@H](C(=O)N[C@@H](CCN)C(=O)N[C@H]1CCNC(=O)[C@H]([C@@H](C)O)NC(=O)[C@H](CCN)NC(=O)[C@H](CCN)NC(=O)[C@H](CC(C)C)NC(=O)[C@@H](Cc2ccccc2)NC(=O)[C@@H](CCN)NC1=O)[C@H](C)O,8 µg/mL,–,< 10%,–,0.125 µg/mL,16 µg/mL,0.06 µg/mL,–,–,–,–,–,–,–
"CCCCCCCC(=O)N[C@@H](CCN)C(=O)N[C@H](C(=O)N[C@@H](CCN)C(=O)N[C@H]1CCNC(=O)[C@H]([C@@H](C)O)NC(=O)[C@H](CCN)NC(=O)[C@H](CCN)NC(=O)[C@H](CC(C)C)NC(=O)[C@@H](Cc2cc(F)c(F)c(F)c2)NC(=O)[C@H](CCN)NC1=O)[C@@H](C)O (Octanoyl-[Dab]T[Dab][Dab][Dab][dPhe(3,4,5-F3)]L[Dab][Dab]T; lactam 4-C)",< 0.125 µg/mL,< 0.125 µg/mL,–,1 µg/mL,< 0.125 µg/mL,0.25 µg/mL,< 0.125 µg/mL,–,–,–,–,–,–,–
